The results in this text go back to patent US20240150277A1, “Covalent PPARG inverse-agonists” (Bayer Aktiengesellschaft, priority 2022, published 2024).

Structures are written as SMILES. pIC50: −log10 of the molar value. Where two headings read alike, the source gives them in different places.

The target in assay [1] is T1, PPARG receptors (Homo sapiens, UniProt P37231).
T1 construct: leading to PPARG dependent expression of the NanoLuc@ Luciferase; endogenous in cells
T1 sequence (P37231 1-505): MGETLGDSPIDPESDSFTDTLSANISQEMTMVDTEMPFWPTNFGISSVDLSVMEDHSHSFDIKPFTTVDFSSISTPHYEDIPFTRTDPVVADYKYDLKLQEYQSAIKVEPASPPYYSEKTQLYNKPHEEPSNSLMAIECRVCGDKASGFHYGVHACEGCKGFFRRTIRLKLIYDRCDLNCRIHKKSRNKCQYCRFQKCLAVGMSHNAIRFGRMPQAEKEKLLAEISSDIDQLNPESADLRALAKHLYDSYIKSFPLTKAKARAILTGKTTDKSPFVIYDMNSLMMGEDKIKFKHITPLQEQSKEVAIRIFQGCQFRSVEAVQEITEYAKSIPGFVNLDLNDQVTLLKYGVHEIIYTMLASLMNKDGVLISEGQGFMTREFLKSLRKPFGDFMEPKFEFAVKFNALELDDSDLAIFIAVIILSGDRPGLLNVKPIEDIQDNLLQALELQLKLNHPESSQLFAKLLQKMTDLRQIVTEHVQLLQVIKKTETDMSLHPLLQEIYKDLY
The assay can be described thus: RT-112-FABP4-NLuc Reporter Gene Assay (inverse agonism). Particulars: incubated over night; for Emax: RT112/84, read-out: PPARG_RT-112_FABP4_NLuc_inverse agonist Efficacy - [%], bladder cancer cell line RT-112/84, NanoLuc in FABP4 3′ UTR; for pIC50: bladder cancer cell line RT-112/84, NanoLuc in FABP4 3′ UTR, 50 μM to 0.03 nM. Type of assay: cell-based. On the procedure: Inverse agonists reduce the basal expression of the Luciferase resulting in a decrease of the Luciferase signal after addition of substrate and cell lysis. To exclude toxic effects of the compounds a parallel measurement of cell viability was performed based on the CellTiter Glo Assay (Promega).
On the next day 10 μl of test compounds dissolved in DMEM/F12 2% FBS and 0,01% BSA are placed in the wells of the microtiter plates. Final concentrations ranged from 50 μM to 0.03 nM. […] On the next day the NanoLuc Luciferase activity was measured by addition of 40 μl of NanoLuc substrate and lysis buffer (Promega, Madison, Wisconsin) diluted in 2 mM Ca-tyrode buffer (20 mM HEPES, 130 mM NaCl, 5 mM KCl, 5 mM NaHCO3, 2 mM MgCl2, pH 7,4). The resulting light signal was measured for 60 seconds in a luminometer. Every sample was tested in quadruples and mean values were used to calculate the IC50 values and efficacies of the compounds.
(A reporter such as luciferase makes a cellular process visible.)

The subject of assay [2] is UMUC9 cells. The assay can be described thus: Proliferation UMUC9 H2B-GFP assay (Incucyte). Type of assay: cell-based. As to conditions: 7 days of treatment; for Emax: UM-UC-9, 168 h, % efficacy (span); for pIC50: UM-UC-9, relative IC50, Day 1 subtracted, percentage of DMSO control. On the procedure: Proliferation UMUC9 H2B-GFP assay
Instrument: Incucyte® (Sartorius).
Description: Incucyte® Proliferation Assay measures cell proliferation based on nuclei count using live-cell time-lapse imaging. […] Measurements were performed on the day of treatment (Day 1 reading) and after 7 days of treatment (Day 8 reading). Green fluorescence in cell nuclei is measured using the instrument (Image Channels: Phase, Green; Acquisition time: 300 ms; Magnification: 4×).
Analysis: Selected metrics for analysis: Phase Object Confluence (Percent), Nuclei Count (1/Well) and Total Nuclei Area (μm^2/Well). Day 1 measurements were subtracted from each Day 8 measurement and expressed as percentage of the vehicle (DMSO) control. Percentage proliferation values were then plotted against compound concentration using GraphPad PRISM software. The Sigmoidal 4PL X is log (concentration) model of […] was used. Relative IC50 values and % efficacy (span) is reported below.

[3] abbreviates: read-out: PPARG_RT-112_FABP4_NLuc_inverse agonist IC50 - [mol/l].
[4] abbreviates: PPARG_RT-112_FABP4_NLuc_inverse agonist IC50 - [mol/l].

Regarding `Cc1cc(-c2nnco2)ccc1NC(=O)c1cc(C(=O)NCc2ccc(F)c(F)c2)c(F)cc1Cl` [Example 10, 4-chloro-N^1-[(3,4-difluorophenyl)methyl]-6-fluoro-N^3-[2-methyl-4-(1,3,4-oxadiazol-2-yl)phenyl]benzene-1,3-dicarboxamide], the Emax in assay [1] came out at 108%; in assay [2] it was 86.7%. Also, the pIC50 in assay [1] (setting [3]) was 8.32.

As for `Cc1cc(N2CCCC(O)C2)ccc1NC(=O)c1cc(C(=O)NCc2ccc(F)c(F)c2)c(F)cc1Cl` (centres unmarked) [Example 11, 4-chloro-N^1-[(3,4-difluorophenyl)methyl]-6-fluoro-N^3-{4-[3-hydroxypiperidin-1-yl]-2-methylphenyl}benzene-1,3-dicarboxamide], the pIC50 is 8.38 in assay [1] (setting [4]) and 8.08 in assay [2]. The Emax in assay [1] is 103%; in assay [2], 104%.

Take `O=C(NCc1ccc(F)c(F)c1)c1cc(Cl)c(Cl)c(C(=O)Nc2ccc(C(F)(F)F)cn2)c1` [Example 13, 4,5-dichloro-N′-[(3,4-difluorophenyl)methyl]-N^3-[5-(trifluoromethyl)pyridin-2-yl]benzene-1,3-dicarboxamide]: the pIC50 in assay [1] (setting [4]) is 9.40; in assay [2], 5.32. Besides, the Emax in assay [1] turned out to be 77.5%; in assay [2], 77%.

Turning to `O=C(NCc1ccc(F)c(F)c1)c1cc(Cl)c(Cl)c(C(=O)Nc2ccc(C3CC3)cn2)c1` [Example 14, 4,5-dichloro-N^3-(5-cyclopropylpyridin-2-yl)-N^1-[(3,4-difluorophenyl)methyl]benzene-1,3-dicarboxamide], the pIC50 in assay [1] (setting [4]) was 9.38; in assay [2], 5.80. Further, the results for the Emax in assay [1] and in assay [2] were 82.5% and 85%, respectively.

Turning to `COc1ccccc1CNC(=O)c1cc(Cl)c(Cl)c(C(=O)Nc2ccccc2)c1` [Example 15, 4,5-dichloro-N-[(2-methoxyphenyl)methyl]-N^3-phenylbenzene-_,3-dicarboxamide], the pIC50 in assay [1] (setting [4]) is 9.28; in assay [2], 8.10. In addition, the Emax was 70.7% in assay [1] and 60.6% in assay [2].

On to `Cc1ccccc1CNC(=O)c1cc(Cl)c(Cl)c(C(=O)Nc2ccccc2)c1` [Example 17, 4,5-dichloro-N^1-[(2-methylphenyl)methyl]-N^3-phenylbenzene-1,3-dicarboxamide], for which the values for the pIC50 in assay [1] (setting [4]) and in assay [2] were 8.89 and 8.82, respectively. For the same molecule, the values for the Emax in assay [1] and in assay [2] were 71% and 28.3%, respectively.

Consider `Cc1cc(N2CCOCC2)cnc1NC(=O)c1cc(C(=O)NCc2ccc(F)c(F)c2)c(F)c(C)c1Cl` [Example 18, 4-chloro-N^1-[(3,4-difluorophenyl)methyl]-6-fluoro-5-methyl-N^3-[3-methyl-5-(morpholin-4-yl)pyridin-2-yl]benzene-1,3-dicarboxamide], for which the pIC50 in assay [1] (setting [4]) was 8.87; in assay [2], 7.51. Further, the figures for the Emax in assay [1] and in assay [2] were 95% and 59.5%, respectively.

As for `COCCOc1ccc(NC(=O)c2cc(C(=O)NCc3ccc(F)c(F)c3)c(F)c(C)c2Cl)c(C)c1` [Example 19, 4-chloro-N^1-[(3,4-difluorophenyl)methyl]-6-fluoro-N^3-[4-(2-methoxyethoxy)-2-methylphenyl]-5-methylbenzene-1,3-dicarboxamide], the pIC50 was 8.91 in assay [1] (setting [4]) and 7.94 in assay [2]. Besides, the Emax in assay [1] was determined as 144%; in assay [2], 65.9%.

As for `Cc1cccc(-c2nc3cc(NC(=O)c4cc(C(=O)NCc5ccc(F)c(F)c5)c(F)c(C)c4Cl)ccc3o2)c1` [Example 20, 4-chloro-N^1-[(3,4-difluorophenyl)methyl]-6-fluoro-5-methyl-N^3-[2-(3-methylphenyl)-1,3-benzoxazol-5-yl]benzene-1,3-dicarboxamide], the pIC50 in assay [1] (setting [4]) is 9.34; in assay [2] it was 8.23. In addition, the Emax in assay [1] was determined as 114%; in assay [2], 69.6%.

As to `O=C(NCc1ccc(F)cc1)c1cc(C(=O)Nc2ccc(Oc3ccccc3)cn2)c(Cl)cc1F` [Example 21, 4-chloro-6-fluoro-N^1-[(4-fluorophenyl)methyl]-N^3-(5-phenoxypyridin-2-yl)benzene-1,3-dicarboxamide], the pIC50 is 8.83 in assay [1] (setting [4]) and 7.97 in assay [2]. The values for the Emax in assay [1] and in assay [2] were 142% and 56.1%, respectively.

Turning to `O=C(NCc1ccc(F)cc1)c1cc(C(=O)Nc2ccc3oc(-c4cccc(Cl)c4)nc3c2)c(Cl)cc1F` [Example 22, 4-chloro-N^3-[2-(3-chlorophenyl)-1,3-benzoxazol-5-yl]-6-fluoro-N^1-[(4-fluorophenyl)methyl]benzene-1,3-dicarboxamide], the pIC50 in assay [1] (setting [4]) is 8.89; in assay [2], 7.67. Moreover, the Emax came out at 106% in assay [1] and 86.6% in assay [2].

For `Cc1noc(-c2ccc(NC(=O)c3cc(C(=O)NCc4ccc(F)cc4)c(F)cc3Cl)cc2)n1` [Example 23, 4-chloro-6-fluoro-N^1-[(4-fluorophenyl)methyl]-N^3-[4-(3-methyl-1,2,4-oxadiazol-5-yl)phenyl]benzene-1,3-dicarboxamide], the pIC50 in assay [1] (setting [4]) was 9.09; in assay [2] it was 8.42. Also, the Emax in assay [1] turned out to be 148%; in assay [2], 54%.

For the molecule `Cc1ccc(NC(=O)c2cc(C(=O)NCc3ccccc3)c(F)cc2Cl)cc1` [Example 24, N^1-benzyl-4-chloro-6-fluoro-N^3-(4-methylphenyl)benzene-1,3-dicarboxamide], the pIC50 in assay [1] (setting [4]) is 8.12; in assay [2] it was 7.60. Further, the values for the Emax in assay [1] and in assay [2] were 92.5% and 24.4%, respectively.

For the molecule `Cc1ccccc1NC(=O)c1cc(C(=O)NCc2ccccc2)c(F)cc1Cl` [Example 25, N1-benzyl-4-chloro-6-fluoro-N^3-(2-methylphenyl)benzene-1,3-dicarboxamide], the figures for the pIC50 in assay [1] (setting [4]) and in assay [2] were 7.40 and < 5.22, respectively. The Emax in assay [1] was 99.3%.

`COCCOCc1cc(F)ccc1CNC(=O)c1cc(C(=O)Nc2ccc(C(F)(F)F)cc2C)c(Cl)cc1F` [Example 26, 4-chloro-6-fluoro-N^1-({4-fluoro-2-[(2-methoxyethoxy)methyl]phenyl}methyl)-N^3-[2-methyl-4-(trifluoromethyl)phenyl]benzene-1,3-dicarboxamide]: the values for the Emax in assay [1] and in assay [2] were 94% and 73.4%, respectively. For the same molecule, the results for the pIC50 in assay [1] (setting [3]) and in assay [2] were 8.13 and 7.56, respectively.

With `O=C(NCc1ccccc1)c1cc(Cl)c(Cl)c(C(=O)Nc2ccc(OC(F)F)cc2)c1F` [Example 31, N^1-benzyl-4,5-dichloro-N^3-[4-(difluoromethoxy)phenyl]-2-fluorobenzene-1,3-dicarboxamide], the pIC50 is 9.52 in assay [1] (setting [4]) and < 5.22 in assay [2]. Besides, the Emax in assay [1] is 86.8%.

As to `O=C(NCc1ccccc1)c1cc(Cl)c(Cl)c(C(=O)Nc2ccc(C3COC3)cc2)c1F` [Example 33, N^1-benzyl-4,5-dichloro-2-fluoro-N3-[4-(oxetan-3-yl)phenyl]benzene-1,3-dicarboxamide], the pIC50 in assay [1] (setting [4]) is 8.98; in assay [2], 8.31. In addition, the Emax in assay [1] was 94%; in assay [2] it was 59.8%.

Consider `O=C(NCc1ccc(F)c(F)c1)c1cc(C(=O)Nc2ccccn2)c(Cl)cc1F` [Example 34, 4-chloro-N^1-(3,4-difluorobenzyl)-6-fluoro-N^3-(pyridin-2-yl)isophthalamide], for which the Emax in assay [1] was found to be 95%; in assay [2] it was 100%. The pIC50 in assay [1] (setting [3]) is 7.26.
